Our source for the pest or weed control, inhibition of growth and melting point values is patent US20100331348A1, “TROPANE DERIVATIVES USEFUL AS PESTICIDES” (SYNGENTA CROP PROTECTION, INC., priority 2007, published 2010).

Data set [1] relates to Pyricularia oryzae. The data set can be described thus: whole plant or invertebrate. In kind it is in vivo. The settings on record: foliar, 96 h.
For data set [2], the system named is Plutella xylostella. Put plainly: Plutella xylostella (Diamond back moth) artificial diet test. As to conditions: 120 h, read-out: control of Plutella xylostella.
Data set [3] relates to Tetranychus urticae. As to conditions: foliar, 192 h, read-out: control of Tetranychus urticae.
In data set [4] the test system is Puccinia recondita f.sp. tritici. Put plainly: Puccinia recondita f.sp. tritici (wheat brown rust) leaf disk assay. In kind it is in vivo. The settings on record: foliar, 216 h, preventive, nine days after inoculation, read-out: control of fungal infection, Puccinia recondita f.sp. tritici.
Data set [5] has as its system Myzus persicae. The data set can be described thus: Myzus persicae (Green peach aphid) sunflower leaf disc test. As to conditions: foliar, 144 h, read-out: control of Myzus persicae.
Data set [6] relates to Erysiphe graminis f.sp. tritici. Put plainly: Erysiphe graminis f.sp. tritici (wheat powdery mildew) leaf disk assay. As to conditions: Blumeria graminis, foliar, 96 h, preventive, four days after inoculation, read-out: control of fungal infection, Erysiphe graminis fsp. tritici. In kind it is in vivo.
In data set [7] the test system is Plasmopara viticola. Put plainly: Plasmopara viticola (downy mildew of grapevine) leaf disk assay. In kind it is in vivo. The settings on record: foliar, 168 h, preventive, seven days after inoculation, read-out: control of fungal infection, Plasmopara viticola.
In data set [8] the test system is Septoria tritici. The data set can be described thus: Septoria tritici (leaf blotch) growth inhibition in nutrient broth. Format: cell-based. As to conditions: Zymoseptoria tritici, 72 hrs, read-out: control of fungal infection, Septoria tritici.
The subject of data set [9] is Heliothis virescens. Put plainly: Heliothis virescens (Tobacco budworm) egg test on artificial diet. As to conditions: 96 h, read-out: control of Heliothis virescens.
For data set [10], the system named is Aedes aegypti. The data set can be described thus: Aedes aegypti (Yellow fever mosquito) larvae test. In kind it is in vivo. As to conditions: 48 h.
Data set [11] concerns Pythium ultimum. The data set can be described thus: Pythium ultimum (Damping off) growth inhibition in potato dextrose broth. Format: cell-based. The settings on record: Globisporangium ultimum, 48 hours, read-out: control of fungal infection, Pythium ultimum.
The test system of data set [12] is Phytophthora infestans. The data set can be described thus: whole plant or invertebrate. Format: in vivo. As to conditions: foliar, 96 h, read-out: control of fungal infection, Phytophthora infestans.
[13] abbreviates: read-out: control of fungal infection, Pyricularia oryzae (at least 80% list).
The mark [14] stands for this setting: read-out: control of fungal infection, Pyricularia oryzae (at least 60% list).

Structures are written as SMILES. Where two headings read alike, the source gives them in different places.

`CCc1ncnc(N2C3CCC2CC(=NOCc2ccc(C(F)(F)F)cc2)C3)c1Cl` [Example 5.43]: the pest or weed control at 200 ppm in [1] (setting [13]), in data set [2], in data set [3], in data set [4], in [5] and in [6] was at least 80% throughout.

In the case of `CCc1ncnc(N2[C@@H]3CC[C@H]2CC(O/N=C(\C)c2cccnc2)C3)c1Cl` (some centres unmarked) [Example 2.97], the pest or weed control at 200 ppm in data set [1] (setting [14]) is at least 60%; in [7], at least 80%; in data set [3] it was at least 80%. Moreover, the inhibition of growth at 200 ppm in [8] is at least 60%.

Turning to `CCc1ncnc(N2[C@@H]3CC[C@H]2CC(O)(COc2ccc(C)cc2)C3)c1Cl` (some centres unmarked) [Example 1.159], the pest or weed control at 200 ppm in [7] and in [4] was at least 80% each time. Moreover, the inhibition of growth at 200 ppm in [8] was at least 60%.

Regarding `CCc1ncnc(N2C3CCC2CC(=CCOc2cc(C)nc(C)n2)C3)c1Cl` [Example 3.15], the pest or weed control at 200 ppm in data set [1] (setting [13]), in data set [4] and in data set [9] was at least 80% throughout. In addition, in data set [8], the inhibition of growth at 200 ppm is at least 60%. The same compound returned a pest or weed control at 2 ppm in data set [10] of at least 80%.

For `Fc1ccc(F)c(CON=C2CC3CCC(C2)N3c2ncnc3sccc23)c1` [Example 5.218], the pest or weed control at 200 ppm is at least 60% in [1] (setting [14]); at least 80% in [1] (setting [13]); at least 80% in data set [2]; at least 80% in [3]; at least 80% in [4]; at least 80% in [5]. In addition, in data set [6], the pest or weed control at 200 ppm is at least 80%. The inhibition of growth at 200 ppm in [11] was at least 60%. The compound also returned a pest or weed control at 2 ppm in [10] of at least 80%.

As a reminder, the melting point is the temperature, or range, at which the solid turns liquid. For the compound `FC(F)(F)c1cccc(OC2C[C@H]3CC[C@@H](C2)N3c2ncnc3ccsc23)n1` (some centres unmarked) [Example 2.78], the melting point was found to be 109 °C. For the same compound, in data set [1] (setting [14]), the pest or weed control at 200 ppm was at least 60%. For the same compound, the pest or weed control at 200 ppm in [1] (setting [13]) was at least 80%. Moreover, in [4], the pest or weed control at 200 ppm is at least 80%. The inhibition of growth at 200 ppm in data set [8] was at least 60%.

The compound `Cc1csc2c(N3[C@@H]4CC[C@H]3CC(Oc3cccc(C(F)(F)F)n3)C4)ncnc12` (some centres unmarked) [Example 2.82] had a melting point of 123 °C. Moreover, in data set [1] (setting [14]), the pest or weed control at 200 ppm is at least 60%. In addition, the inhibition of growth at 200 ppm in [8] was at least 60%. The pest or weed control at 200 ppm in data set [6] was at least 80%.

For `Fc1ccc(CON=C2CC3CCC(C2)N3c2ncnc3sccc23)c(F)c1F` [Example 5.222], the pest or weed control at 200 ppm in data set [1] (setting [14]) was at least 60%; in data set [2] it was at least 80%; in data set [7], at least 80%; in data set [4], at least 80%; in data set [5] it was at least 80%; in data set [6] it was at least 80%. Further, the inhibition of growth at 200 ppm in [11] was at least 60%. Moreover, the pest or weed control at 2 ppm in data set [10] is at least 80%.

With `Cc1ccc(OCC=C2CC3CCC(C2)N3c2ncnc3sccc23)cn1` [Example 3.29], the pest or weed control at 200 ppm in data set [1] (setting [13]), in data set [2], in [7], in data set [4], in [9] and in data set [5] was at least 80% throughout. Also, the pest or weed control at 200 ppm in data set [12] was at least 80%. In [10], this compound came in with a pest or weed control at 2 ppm of at least 80%.

Consider `CC(C)(C)c1ccc(OC2C[C@H]3CC[C@@H](C2)N3c2ncnc3sccc23)cc1` (some centres unmarked) [Example 1.25], for which the pest or weed control at 200 ppm in data set [7], in data set [3], in data set [5] and in [12] was at least 80% throughout.

With `COC(=O)CC1CC2CCC(C1)N2c1ncnc2sccc12` (centres unmarked) [Example 7.9], the pest or weed control at 200 ppm in data set [2] and in [3] was at least 80% each time. Further, the inhibition of growth at 200 ppm in [8] was at least 60%. For the same compound, in [10], the pest or weed control at 2 ppm was at least 80%.

Consider `CCc1ncnc(N2C3CCC2CC(Cc2ccccc2)C3)c1Cl` (centres unmarked) [Example 7.23], for which the pest or weed control at 200 ppm in [2] and in data set [4] was at least 80% in each case. The inhibition of growth at 200 ppm in data set [8] was at least 60%. Further, the pest or weed control at 2 ppm in data set [10] was at least 80%.

With `CCc1ncnc(N2C3CCC2CC(=NOCc2ccccc2F)C3)c1Cl` [Example 5.54], the pest or weed control at 200 ppm in [2], in data set [3], in [4], in data set [5] and in data set [6] was at least 80% throughout. Further, the pest or weed control at 2 ppm in data set [10] is at least 80%.

For the compound `CCc1ncnc(N2C3CCC2CC(=NOCc2ccc(Cl)cc2)C3)c1Cl` [Example 5.21], the pest or weed control at 200 ppm in [1] (setting [13]), in data set [2], in data set [4], in data set [9], in data set [5] and in data set [12] was at least 80% in each case. Moreover, the pest or weed control at 200 ppm in data set [6] is at least 80%. Further, the pest or weed control at 2 ppm in data set [10] was at least 80%.

With `CCOC(=O)C=C1CC2CCC(C1)N2c1ncnc(CC)c1Cl` [Example 3.8], the pest or weed control at 200 ppm in data set [4] and in [9] was at least 80% each time. Further, in [8], the inhibition of growth at 200 ppm was at least 60%. The pest or weed control at 2 ppm in data set [10] is at least 80%.

`Fc1ccc(CON=C2CC3CCC(C2)N3c2ncnc3sccc23)cc1` [Example 5.166]: the pest or weed control at 200 ppm was at least 60% in data set [1] (setting [14]); at least 80% in data set [1] (setting [13]); at least 80% in [2]; at least 80% in data set [7]; at least 80% in [4]; at least 80% in [5]. In addition, the pest or weed control at 200 ppm in [12] and in [6] was at least 80% in each case. The same compound returned a pest or weed control at 2 ppm in [10] of at least 80%.

Regarding `CCc1ncnc(N2C3CCC2CC(O)(CC#Cc2ccccc2)C3)c1Cl` (centres unmarked) [Example 7.35], the figures for the pest or weed control at 200 ppm in data set [1] (setting [14]), in data set [7] and in data set [4] were at least 60%, at least 80% and at least 80%, respectively. Further, the inhibition of growth at 200 ppm in [8] is at least 60%.

On to `Clc1ccc(CON=C2CC3CCC(C2)N3c2ncnc3sccc23)c(Cl)c1` [Example 5.152], for which the pest or weed control at 200 ppm in data set [1] (setting [14]) was at least 60%; in [2], at least 80%; in [4] it was at least 80%; in data set [9], at least 80%; in data set [5], at least 80%; in data set [6] it was at least 80%. The pest or weed control at 2 ppm in data set [10] is at least 80%.

With `c1ccc(CC2CC3CCC(C2)N3c2ncnc3sccc23)cc1` (centres unmarked) [Example 7.6], the pest or weed control at 200 ppm is at least 60% in data set [1] (setting [14]); at least 80% in [1] (setting [13]); at least 80% in [7]; at least 80% in data set [4]; at least 80% in data set [9]. For the same compound, the inhibition of growth at 200 ppm in data set [8] was at least 60%. Also, the pest or weed control at 2 ppm in [10] is at least 80%.

For `CCCCCC(=O)C=C1CC2CCC(C1)N2c1ncnc2sccc12` [Example 3.35], the pest or weed control at 200 ppm in data set [1] (setting [14]) was at least 60%; in [1] (setting [13]), at least 80%; in data set [2], at least 80%; in data set [7], at least 80%; in data set [4] it was at least 80%. Besides, the inhibition of growth at 200 ppm in data set [8] was at least 60%. For the same compound, in data set [10], the pest or weed control at 2 ppm is at least 80%.

With `Cc1nc(CON=C2CC3CCC(C2)N3c2ncnc3sccc23)no1` [Example 5.245], the pest or weed control at 200 ppm in [1] (setting [13]), in [2], in [4], in data set [9], in data set [5] and in data set [6] was at least 80% in each case. The compound further yielded a pest or weed control at 2 ppm in data set [10] of at least 80%.

Consider `Clc1ccc(CC2CC3CCC(C2)N3c2ncnc3sccc23)cc1` (centres unmarked) [Example 7.10], for which the pest or weed control at 200 ppm in data set [1] (setting [14]) is at least 60%; in data set [1] (setting [13]), at least 80%; in data set [7], at least 80%; in data set [4], at least 80%; in data set [9], at least 80%. For the same compound, the inhibition of growth at 200 ppm in data set [8] is at least 60%. In addition, the pest or weed control at 2 ppm in data set [10] is at least 80%.

Take `CCc1ncnc(N2[C@@H]3CC[C@H]2CC(Oc2ccc(CCC(C)=O)cc2)C3)c1Cl` (some centres unmarked) [Example 1.213]: the pest or weed control at 200 ppm in data set [3], in data set [4], in data set [5] and in [6] was at least 80% each time.
